Tests used:
MYB = test: HiBiT protein abundance assay, MYB HiBiT K562 cell line; type: cell-based, human; settings: HiBiT K562 cell line, 24 hours, top dose 10 μM; read-out: Effect on protein abundance, MYB (IC50 category)
Protocol: (§1) Compounds described herein were used to screen for effects on quantitative protein abundance using a HiBit assay system (Promega). Quantitative protein abundance was determined by measuring the protein levels of HiBit-tagged protein targets expressed in cell culture via luminescence using the Nano-Glo HiBiT Lytic Detection System, which uses a split complementation assay format to reconstitute NanoBiT enzyme to generate a luminescent signal. A protein abundance assay was developed such that endogenous protein targets could be modified with the HiBiT peptide tag and their abundance could be assessed after compound treatment. Briefly, K562 cell lines containing a HiBiT-modification were treated with various compounds described herein (e.g., compounds of Formulas (I), (II), (III), (IV), (V), (VI), (VII), (VIII), or (IX)). After treatment for 24 hours, the protein abundance of a specific target was determined by measuring luminescence.
(§2) • Promega Nano-Glo HiBiT Lytic Detection System (cat #N3030) • Corning 384-well TC-treated microplates (cat #3570) • Synthego Engineered Cells Knock-In Clones
(§3) Cells were maintained in IMDM with 10% FBS. Before the assay, cells were diluted with […] growth media (IMDM+[…] media) and were seeded in a 384-well plate at a density of 10,000 cells/well (for each cell line listed in Table 5). Each compound was prepared as a 10-point 3-fold serial dilution in DMSO with the top dose at a final concentration of 10 μM in the well. Unmodified K562 cells were added at the previously specified density with DMSO to serve as an assay baseline and positive control (PC) and DMSO only with the respective modified cell lines was added to the negative control (NC) columns. Final DMSO concentration was kept at or below 0.25%. Treated cell plates were placed in an incubator at 37° C. with […] for 24 hours. After 24 hours, 25 μL of Complete HiBit Lytic reagent was added to each well at room temperature (e.g. one plate requiring 10 mL Lytic Buffer, 100 μL LgBiT Protein, 200 μL Lytic Substrate), shaken for 5 minutes at 600 RPM, then left to sit for 10 minutes for signal to stabilize before reading on a Spark Cyto plate reader (Tecan) with a 500 ms measurement time.
(§4) To determine compound effects on protein abundance of each target in Table 5, the percent response for each respective cell line was calculated at each compound concentration as follows:
(§5) For the normalized response at each concentration, a four-parameter logistical regression was fit to the data and the response was interpolated at the […] to determine a concentration for protein abundance at […] the untreated control.

HTT = test: HiBiT protein abundance assay, HTT HiBiT K562 cell line; type: cell-based, human; settings: HiBiT K562 cell line, 24 hours, top dose 10 μM; read-out: Effect on protein abundance, HTT (IC50 category)
Protocol: as §1, §2, §3, §4, §5

[1] = tested on: K562 (human chronic myelogenous leukemia) cells; test: Cell Titer Glo 2.0 cell viability assay; type: cell-based; settings: Homo sapiens, K562, 72 h, K562 cells, 72 hours, Cell Titer Glo 2.0; read-out: K562 GI50
Protocol: Compounds described herein were screened for toxicity in K562 (human chronic myelogenous leukemia) cells using a Cell Titer Glo 2.0 assay.
Cells were plated at 500 cells/well (K562 cells) in 45 μL of IMDM supplemented with 1000 FBS in a 384-well opaque plate. Wells containing only medium were used as a blank control. Test compounds (e.g., compounds ofFormula (I), (II), (III), (IV), (V), (VI), (VII), (VIII), and (IX)) were first serially diluted in DMSO then diluted 1:100 with IMDM+10% FBS. The final concentration of DMSO was 0.1% in each well. The cells were incubated for 72 hours at 37° C. and 500 CO2 before assaying with Cell Titer Glo 2.0 reagent.

Target C = test: HiBiT protein abundance assay, Target C (Promega Nano-Glo HiBiT Lytic Detection System, knock-in K562 cell line); type: cell-based, human; settings: Homo sapiens, K562, 24 h, HiBiT K562 cell line, 24 hours, top dose 10 μM; read-out: Effect on protein abundance, Target C (IC50 category)
Protocol: as §2, §3, §4, §5

## Cc1cn2cc(-c3cc(O)c4c(=O)n(C5CCNC5)cnc4c3)cc(C#N)c2n1 (stereo not shown) [Compound 507, 6-[5-hydroxy-4-oxo-3-(pyrrolidin-3-yl)quinazolin-7-yl]-2-methylimidazo[1,2-a]pyridine-8-carbonitrile; trifluoroacetic acid]
MYB
  IC50: 1000 to 10000 nM
HTT
  IC50: > 10000 nM
[1]
  GI50: 1000 to 10000 nM
Target C
  IC50: 1000 to 10000 nM

## Cc1nc2c(o1)CN(c1cc(F)c3c(=O)n(C4CCNCC4)cnc3c1)CC2 [Compound 508, 5-fluoro-7-{2-methyl-4H,6H,7H-[1,3]oxazolo[5,4-c]pyridin-5-yl}-3-(piperidin-4-yl)quinazolin-4-one; trifluoroacetic acid]
MYB
  IC50: 1000 to 10000 nM
HTT
  IC50: > 10000 nM
[1]
  GI50: > 10000 nM
Target C
  IC50: > 10000 nM

## Cn1cc2nc(-c3cc(O)c4c(=O)n(C5CCNC6(CC6)C5)ncc4c3)ccc2n1 (stereo not shown) [Compound 562]
MYB
  IC50: 100 to 1000 nM
HTT
  IC50: 100 to 1000 nM
[1]
  GI50: 100 to 1000 nM
Target C
  IC50: 100 to 1000 nM

## Cn1cc2nc(-c3cc(F)c4c(=O)n(C5CCNC6(CC6)C5)ncc4c3)ccc2n1 (stereo not shown) [Compound 563]
MYB
  IC50: 100 to 1000 nM
HTT
  IC50: 100 to 1000 nM
[1]
  GI50: 100 to 1000 nM
Target C
  IC50: 100 to 1000 nM

## Cc1nc2c(C)cc(-c3cc(O)c4c(=O)n(C5CCNC6(CC6)C5)ncc4c3)cc2o1 (stereo not shown) [Compound 564]
MYB
  IC50: 100 to 1000 nM
HTT
  IC50: 100 to 1000 nM
[1]
  GI50: 100 to 1000 nM
Target C
  IC50: 100 to 1000 nM

## Cc1cn2nc(-c3cc(F)c4c(=O)n(C5CCN(C)C6(CC6)C5)ncc4c3)cc(C)c2n1 (stereo not shown) [Compound 565]
MYB
  IC50: < 100 nM
HTT
  IC50: < 100 nM
[1]
  GI50: 100 to 1000 nM
Target C
  IC50: < 100 nM

## Cc1cn2nc(-c3cc(N)c4c(=O)n(C5CCNCC5)ncc4c3)cc(C)c2n1 [Compound 566]
MYB
  IC50: 100 to 1000 nM
HTT
  IC50: 100 to 1000 nM
[1]
  GI50: 100 to 1000 nM
Target C
  IC50: 100 to 1000 nM

## Cc1cn2nc(-c3ccc4c(=O)c(C5CCNCC5)cn(C)c4c3)cc(C)c2n1 [Compound 590]
MYB
  IC50: 100 to 1000 nM
HTT
  IC50: 1000 to 10000 nM
[1]
  GI50: 1000 to 10000 nM
Target C
  IC50: 1000 to 10000 nM

## Cc1cn2cc(-c3ccc4c(=O)c(C5CCNCC5)cn(C)c4c3)nc(C)c2n1 [Compound 591]
MYB
  IC50: 1000 to 10000 nM
HTT
  IC50: > 10000 nM
[1]
  GI50: 1000 to 10000 nM
Target C
  IC50: > 10000 nM

## Cc1cn2cc(-c3ncc4c(=O)n(C5CCNCC5)ccc4n3)cc(F)c2n1 [Compound 1213, 2-(8-fluoro-2-methylimidazo[1,2-a]pyridin-6-yl)-6-(piperidin-4-yl)pyrido[4,3-d]pyrimidin-5(6H)-one]
MYB
  IC50: 100 to 1000 nM
HTT
  IC50: 100 to 1000 nM
[1]
  GI50: 100 to 1000 nM
Target C
  IC50: 100 to 1000 nM

## COc1c(-c2cc3ccn(C4CCNCC4)c(=O)c3cn2)cc2cn(C)nc2c1C [Compound 1218]
MYB
  IC50: > 10000 nM
HTT
  IC50: > 10000 nM
[1]
  GI50: > 10000 nM
Target C
  IC50: > 10000 nM

## Cc1c(O)c(-c2ncc3c(=O)n(C4CCNCC4)ccc3n2)cc2cn(C)nc12 [Compound 1224]
MYB
  IC50: < 100 nM
HTT
  IC50: < 100 nM
[1]
  GI50: < 100 nM
Target C
  IC50: 100 to 1000 nM

## Cn1cc2cc(-c3ccc4c(=O)n(C5CCNCC5)ccc4n3)c(O)c(F)c2n1 [Compound 1226]
MYB
  IC50: < 100 nM
HTT
  IC50: < 100 nM
[1]
  GI50: < 100 nM
Target C
  IC50: < 100 nM

## Cc1cn2cc(-c3ccc4c(=O)n(C5CCNCC5)ccc4n3)cc(F)c2n1 [Compound 1230, 2-(8-fluoro-2-methylimidazo[1,2-a]pyridin-6-yl)-6-(piperidin-4-yl)-1,6-naphthyridin-5(6H)-one]
MYB
  IC50: < 100 nM
HTT
  IC50: < 100 nM
[1]
  GI50: < 100 nM
Target C
  IC50: 100 to 1000 nM

## Cc1c(O)c(-c2ccc3c(=O)n(C4CCNCC4)ccc3n2)cc2cn(C)nc12 [Compound 1234]
MYB
  IC50: < 100 nM
HTT
  IC50: < 100 nM
[1]
  GI50: < 100 nM
Target C
  IC50: < 100 nM

## Cc1nc2cc(O)c(-c3ccc4c(=O)n(C5CCNCC5)ccc4n3)cc2o1 [Compound 1237]
MYB
  IC50: < 100 nM
HTT
  IC50: < 100 nM
[1]
  GI50: < 100 nM
Target C
  IC50: < 100 nM

## Cn1cc2cc(-c3ccc4c(=O)n(C5CCNCC5)ccc4n3)c(O)cc2n1 [Compound 1239, 2-(6-hydroxy-2-methyl-2H-indazol-5-yl)-6-(piperidin-4-yl)-1,6-naphthyridin-5(6H)-one]
MYB
  IC50: < 100 nM
HTT
  IC50: < 100 nM
[1]
  GI50: < 100 nM
Target C
  IC50: < 100 nM

## Cn1cc2cc(-c3ccc4c(=O)n([C@H]5CCNC6(CC6)C5)ccc4n3)c(O)cc2n1 [Compound 1245]
MYB
  IC50: < 100 nM
HTT
  IC50: < 100 nM
[1]
  GI50: 100 to 1000 nM
Target C
  IC50: < 100 nM

## Cc1c(O)c(-c2ncc3c(=O)n(C4CCNC(C)C4)ccc3n2)cc2cn(C)nc12 (stereo not shown) [Compound 1320]
MYB
  IC50: < 100 nM
HTT
  IC50: 100 to 1000 nM
[1]
  GI50: < 100 nM
Target C
  IC50: 100 to 1000 nM

## Cc1c(O)c(-c2ncc3c(=O)n(C4CCC(N)C4)ccc3n2)cc2cn(C)nc12 (stereo not shown) [Compound 1321]
MYB
  IC50: 100 to 1000 nM
HTT
  IC50: 100 to 1000 nM
[1]
  GI50: 100 to 1000 nM
Target C
  IC50: 1000 to 10000 nM

## Cc1c(O)c(-c2ncc3c(=O)n(C45CC(N)(C4)C5)ccc3n2)cc2cn(C)nc12 [Compound 1322]
MYB
  IC50: 1000 to 10000 nM
HTT
  IC50: > 10000 nM
[1]
  GI50: 1000 to 10000 nM
Target C
  IC50: 1000 to 10000 nM

## Cc1c(O)c(-c2ncc3c(=O)n(C45CCC(N)(CC4)CC5)ccc3n2)cc2cn(C)nc12 [Compound 1323]
MYB
  IC50: < 100 nM
HTT
  IC50: 1000 to 10000 nM
[1]
  GI50: < 100 nM
Target C
  IC50: > 10000 nM

## Cc1c(O)c(-c2ncc3c(=O)n(C45CCC(N)(C4)C5)ccc3n2)cc2cn(C)nc12 [Compound 1324]
MYB
  IC50: 100 to 1000 nM
HTT
  IC50: 1000 to 10000 nM
[1]
  GI50: 100 to 1000 nM
Target C
  IC50: 1000 to 10000 nM

## Cc1c(O)c(-c2ncc3c(=O)n(C4CC5CC4CN5)ccc3n2)cc2cn(C)nc12 (stereo not shown) [Compound 1325]
MYB
  IC50: 100 to 1000 nM
HTT
  IC50: 100 to 1000 nM
[1]
  GI50: 100 to 1000 nM
Target C
  IC50: 1000 to 10000 nM

## Cc1c(O)c(-c2ncc3c(=O)n([C@H]4[C@@H]5CNC[C@@H]54)ccc3n2)cc2cn(C)nc12 [Compound 1326]
MYB
  IC50: < 100 nM
HTT
  IC50: 100 to 1000 nM
[1]
  GI50: 100 to 1000 nM
Target C
  IC50: 100 to 1000 nM

## Cc1cn2cc(-c3ncc4c(=O)n(C5CCNCC5)c(C)cc4n3)cc(F)c2n1 [Compound 1327]
MYB
  IC50: 100 to 1000 nM
HTT
  IC50: > 10000 nM
[1]
  GI50: 100 to 1000 nM
Target C
  IC50: > 10000 nM

## Cc1c(O)c(-c2ncc3c(=O)n([C@H]4C[C@H]5CC[C@@H](C4)N5)ccc3n2)cc2cn(C)nc12 [Compound 1329]
MYB
  IC50: < 100 nM
HTT
  IC50: 100 to 1000 nM
[1]
  GI50: 100 to 1000 nM
Target C
  IC50: 100 to 1000 nM

## Cc1c(O)c(-c2ncc3c(=O)n([C@@H]4CC[C@H](N)C4)ccc3n2)cc2cn(C)nc12 [Compound 1333]
MYB
  IC50: 100 to 1000 nM
HTT
  IC50: 100 to 1000 nM
[1]
  GI50: 100 to 1000 nM
Target C
  IC50: 1000 to 10000 nM

Reference: patent US20250332173A1, “COMPOUNDS AND METHODS FOR MODULATING NUCLEIC ACID SPLICING” (REMIX THERAPEUTICS INC., priority 2021, published 2025)
